Drawing on paper PMC9803904, “Selective somatostatin receptor 5 inhibition improves hepatic insulin sensitivity” (Pharmacology Research & Perspectives, 2022), this text covers IC50 for one compound.

Assay [1] addresses T1, mouse SSTR5 (somatostatin receptor 5) (Mus musculus, UniProt O08858).
T1 sequence (O08858 1-362): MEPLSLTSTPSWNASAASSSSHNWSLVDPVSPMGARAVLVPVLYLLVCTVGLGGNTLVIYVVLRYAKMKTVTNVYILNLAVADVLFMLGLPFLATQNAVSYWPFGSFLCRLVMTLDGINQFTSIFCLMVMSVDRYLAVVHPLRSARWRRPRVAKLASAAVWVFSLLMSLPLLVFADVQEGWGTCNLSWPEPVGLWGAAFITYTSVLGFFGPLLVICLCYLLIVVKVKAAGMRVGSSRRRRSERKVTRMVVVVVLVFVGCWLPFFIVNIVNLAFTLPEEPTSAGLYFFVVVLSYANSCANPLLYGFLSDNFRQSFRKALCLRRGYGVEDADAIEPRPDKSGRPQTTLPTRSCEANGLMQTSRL
Put plainly: HTRF cAMP antagonist assay in CHO cells stably expressing mouse SSTR5, stimulated with SST28 and forskolin. The assay is classed as cell-based. (TR-FRET usually uses a lanthanide donor and a delayed reading to cut background.)

Assay [2] addresses human SSTR5 (somatostatin receptor 5) (Homo sapiens, UniProt P35346). The assay is described as follows: HTRF cAMP antagonist assay in CHO cells stably expressing human SSTR5, stimulated with SST28 and forskolin. In kind it is cell-based.

human SSTR5 (somatostatin receptor 5), sequence (P35346 whole entry): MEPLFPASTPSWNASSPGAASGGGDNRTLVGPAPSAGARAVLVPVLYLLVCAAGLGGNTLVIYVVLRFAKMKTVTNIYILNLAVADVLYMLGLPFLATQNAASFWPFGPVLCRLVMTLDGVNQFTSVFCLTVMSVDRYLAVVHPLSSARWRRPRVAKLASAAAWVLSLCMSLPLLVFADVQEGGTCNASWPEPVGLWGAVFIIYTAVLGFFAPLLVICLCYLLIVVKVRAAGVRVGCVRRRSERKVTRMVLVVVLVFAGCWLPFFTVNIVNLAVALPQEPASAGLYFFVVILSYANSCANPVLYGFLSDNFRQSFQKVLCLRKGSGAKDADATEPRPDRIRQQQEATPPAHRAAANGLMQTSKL

As a reminder, the IC50 is the concentration needed to halve the response being measured. Read a high IC50 as lower potency. As for `Cc1c(C(=O)O)ccn(C2CCN(Cc3cc(C4CC4)c(-c4ccc(F)cc4)c(F)c3OC(C)C)CC2)c1=O` [compound-1], the IC50 was 31 nM in assay [1] and 9.8 nM in assay [2].
